Laboratory results reported in ChEMBL document CHEMBL5463722, “Data for DCP probe BI-5524” (2023).
Active and inactive are the calls of the source. The rule behind the calls is not given here.

Key:
[1] = target: Cannabinoid receptor 1 (Homo sapiens) (UniProt P21554); test: CB1 Eurofins-Cerep binding assay; conditions: Compound concentration 10.0 uM
[2] = target: Prostaglandin G/H synthase 1 (Homo sapiens) (UniProt P23219); test: Inhibitor of COX-1 in the Eurofins Cerep SafetyScreen44 (BI) by Fluorimetry (Cerep_4173); conditions: Compound concentration 10.0 uM
[3] = target: Alpha-1A adrenergic receptor (Homo sapiens) (UniProt P35348); test: Agonist activity in the Eurofins Cerep SafetyScreen44 (BI) against ALPHA1AH_ANTAG by Scintillation counting (Cerep_2338); conditions: Compound concentration 10.0 uM
[4] = target: Alpha-2A adrenergic receptor (Homo sapiens) (UniProt P08913); test: Inhibitor of ALPHA2A/HU in the Eurofins Cerep SafetyScreen44 (BI) by Radioactive Assay (Cerep_13); conditions: Compound concentration 10.0 uM
hERG (KCNH2) = hERG (KCNH2) (Homo sapiens, UniProt Q12809); test: Inhibitor of HERG_DOFETILIDE in the Eurofins Cerep SafetyScreen44 (BI) by Scintillation counting (Cerep_4094); set-up: scale not given: the % may be the effect or the level left; conditions: probe [3H]dofetilide, compound concentration 10 uM, read-out: % Ctrl
[5] = target: 3',5'-cyclic-AMP phosphodiesterase 4D (Homo sapiens) (UniProt Q08499); test: Inhibitor of PDE4D2 in the Eurofins Cerep SafetyScreen44 (BI) by Scintillation counting (Cerep_4077); conditions: Compound concentration 10.0 uM
[6] = target: Sodium-dependent serotonin transporter (Homo sapiens) (UniProt P31645); test: 5-HT transporter Eurofins-Cerep binding assay; set-up: ligand concentration 2 nM; conditions: Compound concentration 10.0 uM
[7] = target: Elastase, neutrophil expressed (Cricetulus griseus, UniProt A0A3L7HHY4); test: ELANE inhibitor assay (hamster)
Cathepsin G = Cathepsin G (Homo sapiens, UniProt P08311); test: CTSG inhibition assay
[8] = target: 5-hydroxytryptamine receptor 5A (Homo sapiens) (UniProt P47898); test: Activity against 5HT5A/H in the Eurofins SafetyScreen44 (BI) by Radioactive Assay (Old_Cerep_2); conditions: Compound concentration 10.0 uM
[9] = target: 5-hydroxytryptamine receptor 6 (Homo sapiens) (UniProt P50406); test: Activity against 5HT6/H in the Eurofins SafetyScreen44 (BI) by Others (Old_Cerep_3); conditions: Compound concentration 10.0 uM
[10] = target: 5-hydroxytryptamine receptor 7 (Homo sapiens) (UniProt P34969); test: 5-HT7 Eurofins-Cerep binding assay; set-up: ligand concentration 4 nM; conditions: Compound concentration 10.0 uM
[11] = target: Adenosine receptor A1 (Homo sapiens) (UniProt P30542); test: A1 Eurofins-Cerep binding assay; set-up: ligand concentration 1 nM
[12] = target: Adenosine receptor A3 (Homo sapiens) (UniProt P0DMS8); test: A3 Eurofins-Cerep binding assay; set-up: ligand concentration 0.15 nM
[13] = target: Adrenergic receptor alpha-2 (Rattus norvegicus) (UniProt P22086+P19328+P22909); test: Inhibitor of ALPHA2/NS/R in the Eurofins SafetyScreen44 (BI) by Radioactive Assay (Old_Cerep_6); type: protein assay
[14] = target: Bombesin receptor (Rattus norvegicus) (UniProt P52500+P24053+Q8K418); test: Activity against BOMBESIN/NS in the Eurofins SafetyScreen44 (BI) by Radioactive Assay (Old_Cerep_9); type: protein assay
[15] = target: Muscarinic acetylcholine receptor M4 (Homo sapiens) (UniProt P08173); test: M4 Eurofins-Cerep binding assay; conditions: Compound concentration 10.0 uM
[16] = target: Melanocortin receptor 4 (Homo sapiens) (UniProt P32245); test: MC4 Eurofins-Cerep binding assay; set-up: ligand concentration 0.05 nM; conditions: Compound concentration 10.0 uM
[17] = target: Melatonin receptor type 1A (Homo sapiens) (UniProt P48039); test: MT1 (ML1A) Eurofins-Cerep binding assay; set-up: ligand concentration 0.01 nM; conditions: Compound concentration 10.0 uM
[18] = target: Neurotensin receptor type 1 (Homo sapiens) (UniProt P30989); test: Activity against NT1/H in the Eurofins SafetyScreen44 (BI) by Radioactive Assay (Old_Cerep_27); conditions: Compound concentration 10.0 uM
[19] = target: Nociceptin receptor (Homo sapiens) (UniProt P41146); test: Activity against ORL1/H in the Eurofins SafetyScreen44 (BI) by Radioactive Assay (Old_Cerep_28); conditions: Compound concentration 10.0 uM
[20] = target: P2X purinoceptor (Oryctolagus cuniculus) (UniProt G1U3D6); test: Activity against P2X/R in the Eurofins SafetyScreen44 (BI) by Others (Old_Cerep_29); conditions: Rattus norvegicus; Compound concentration 10.0 uM
[21] = target: P2Y purinoceptor 1 (Rattus norvegicus) (UniProt P49651); test: Activity against P2Y/RA in the Eurofins SafetyScreen44 (BI) by Radioactive Assay (Old_Cerep_30); conditions: Compound concentration 10.0 uM
[22] = target: Peroxisome proliferator-activated receptor gamma (Homo sapiens) (UniProt P37231); test: Agonist activity in the Eurofins SafetyScreen44 (BI) against PPARG/H AG by Radioactive Assay (Old_Cerep_35); conditions: Compound concentration 10.0 uM
Homo sapiens = species on record: Homo sapiens; test: sigma (non-selective) Eurofins-Cerep binding assay; type: protein assay; conditions: Compound concentration 10.0 uM
[23] = target: Tumor necrosis factor receptor superfamily member 1A (Homo sapiens) (UniProt P19438); test: TNF-alpha Eurofins-Cerep binding assay; conditions: Compound concentration 10.0 uM
Rattus norvegicus [24] = species on record: Rattus norvegicus; test: BZD (central) Eurofins-Cerep binding assay; conditions: Compound concentration 10.0 uM
[25] = target: 5-hydroxytryptamine receptor 1B (Rattus norvegicus) (UniProt P28564); test: Inhibitor of 5HT1B/R in the Eurofins SafetyScreen44 (BI) by Radioactive Assay (Old_Cerep_1); conditions: Compound concentration 10.0 uM
[26] = target: GABA-A receptor; anion channel (Rattus norvegicus) (UniProt O09028+P15431+P18506+P18508+P19969+P20236+P23574+P23576+P28471+P28473+P30191+P62813+P63079+P63138+Q91ZM7+Q9ES14); test: Activity against BZD/PERIPH/R in the Eurofins SafetyScreen44 (BI) by Radioactive Assay (Old_Cerep_10); type: protein-complex assay
[27] = target: Cannabinoid receptor 1 (Homo sapiens) (UniProt P21554); test: Activity against CB1/CENTR/H in the Eurofins SafetyScreen44 (BI) by Radioactive Assay (Old_Cerep_12)
[28] = target: Calcitonin-gene-related peptide receptor, CALCRL/RAMP1 (Homo sapiens) (UniProt O60894+Q16602); test: Agonist activity in the Eurofins SafetyScreen44 (BI) against CGRP/H by Scintillation counting (Old_Cerep_15); type: protein-complex assay
Rattus norvegicus [29] = species on record: Rattus norvegicus; test: Cl-channel (GABA-gated) Eurofins-Cerep binding assay; set-up: ligand concentration 3 nM; conditions: Compound concentration 10.0 uM
[30] = target: Prostaglandin E2 receptor EP4 subtype (Homo sapiens) (UniProt P35408); test: Agonist activity in the Eurofins SafetyScreen44 (BI) against EP4/H AG by Radioactive Assay (Old_Cerep_19); conditions: Compound concentration 10.0 uM
[31] = target: Small conductance calcium-activated potassium channel protein 1 (Rattus norvegicus) (UniProt P70606); test: Inhibitor of K+/CA+/R in the Eurofins SafetyScreen44 (BI) by Radioactive Assay (Old_Cerep_23); conditions: Compound concentration 10.0 uM
[32] = target: Kappa-type opioid receptor (Rattus norvegicus) (UniProt P34975); test: Inhibitor of KAPPA/R in the Eurofins SafetyScreen44 (BI) by Radioactive Assay (Old_Cerep_24); conditions: Compound concentration 10.0 uM

Sequence of Cannabinoid receptor 1 (Homo sapiens) (P21554 whole entry): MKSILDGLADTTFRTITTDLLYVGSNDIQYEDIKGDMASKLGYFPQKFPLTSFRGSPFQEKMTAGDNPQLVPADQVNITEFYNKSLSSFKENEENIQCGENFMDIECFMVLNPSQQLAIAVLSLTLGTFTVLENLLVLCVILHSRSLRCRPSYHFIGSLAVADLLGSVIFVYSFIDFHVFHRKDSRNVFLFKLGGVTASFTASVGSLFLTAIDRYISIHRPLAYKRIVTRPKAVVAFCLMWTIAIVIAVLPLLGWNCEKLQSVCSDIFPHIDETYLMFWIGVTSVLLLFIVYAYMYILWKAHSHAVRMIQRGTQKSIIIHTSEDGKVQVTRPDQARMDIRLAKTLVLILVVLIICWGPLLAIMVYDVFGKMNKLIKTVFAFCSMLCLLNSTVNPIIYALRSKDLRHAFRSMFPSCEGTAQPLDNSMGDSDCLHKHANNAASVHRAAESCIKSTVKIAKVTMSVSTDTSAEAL
Sequence of Adenosine receptor A3 (Homo sapiens) (P0DMS8 whole entry): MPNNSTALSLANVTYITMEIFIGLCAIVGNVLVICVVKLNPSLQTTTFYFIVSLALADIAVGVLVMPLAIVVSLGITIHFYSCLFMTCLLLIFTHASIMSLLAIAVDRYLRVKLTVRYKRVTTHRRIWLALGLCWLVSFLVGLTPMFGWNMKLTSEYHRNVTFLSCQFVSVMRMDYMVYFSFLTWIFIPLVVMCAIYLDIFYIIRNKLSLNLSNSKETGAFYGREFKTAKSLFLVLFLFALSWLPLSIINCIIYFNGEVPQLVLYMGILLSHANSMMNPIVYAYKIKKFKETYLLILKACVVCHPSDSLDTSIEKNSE
Sequence of Adenosine receptor A1 (Homo sapiens) (P30542 whole entry): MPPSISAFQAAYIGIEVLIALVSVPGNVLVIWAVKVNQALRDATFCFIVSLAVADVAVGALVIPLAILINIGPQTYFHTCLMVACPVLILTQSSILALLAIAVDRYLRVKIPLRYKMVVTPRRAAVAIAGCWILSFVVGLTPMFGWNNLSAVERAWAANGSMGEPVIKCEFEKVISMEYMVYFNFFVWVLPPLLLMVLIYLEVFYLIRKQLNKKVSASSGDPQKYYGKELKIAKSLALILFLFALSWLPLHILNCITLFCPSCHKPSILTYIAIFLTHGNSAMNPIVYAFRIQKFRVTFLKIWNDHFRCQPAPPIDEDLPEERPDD
Sequence of Bombesin receptor (Rattus norvegicus) (P24053 whole entry, looked up): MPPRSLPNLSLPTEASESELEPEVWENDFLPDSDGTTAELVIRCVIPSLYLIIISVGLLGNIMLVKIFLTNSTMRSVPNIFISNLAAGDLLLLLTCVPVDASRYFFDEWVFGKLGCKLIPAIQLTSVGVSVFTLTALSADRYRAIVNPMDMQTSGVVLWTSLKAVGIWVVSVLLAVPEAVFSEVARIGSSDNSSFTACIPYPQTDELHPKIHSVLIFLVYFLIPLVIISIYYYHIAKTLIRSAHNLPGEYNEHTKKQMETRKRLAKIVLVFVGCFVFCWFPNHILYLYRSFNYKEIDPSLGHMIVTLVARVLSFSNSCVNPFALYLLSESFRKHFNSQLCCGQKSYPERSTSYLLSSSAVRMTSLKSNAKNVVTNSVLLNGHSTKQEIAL
Sequence of Bombesin receptor (Rattus norvegicus) (P52500 whole entry, looked up): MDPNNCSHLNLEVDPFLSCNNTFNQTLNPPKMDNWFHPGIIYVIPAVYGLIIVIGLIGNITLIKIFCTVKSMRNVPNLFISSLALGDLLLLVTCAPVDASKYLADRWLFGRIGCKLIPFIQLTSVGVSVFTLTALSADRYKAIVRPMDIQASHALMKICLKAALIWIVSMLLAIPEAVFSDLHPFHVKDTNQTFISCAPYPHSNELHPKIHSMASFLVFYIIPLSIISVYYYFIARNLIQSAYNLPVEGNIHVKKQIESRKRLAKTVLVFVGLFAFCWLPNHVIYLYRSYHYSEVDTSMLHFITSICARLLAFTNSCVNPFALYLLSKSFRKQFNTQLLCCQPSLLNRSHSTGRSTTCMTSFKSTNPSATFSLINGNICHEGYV
Sequence of Bombesin receptor (Rattus norvegicus) (Q8K418 whole entry, looked up): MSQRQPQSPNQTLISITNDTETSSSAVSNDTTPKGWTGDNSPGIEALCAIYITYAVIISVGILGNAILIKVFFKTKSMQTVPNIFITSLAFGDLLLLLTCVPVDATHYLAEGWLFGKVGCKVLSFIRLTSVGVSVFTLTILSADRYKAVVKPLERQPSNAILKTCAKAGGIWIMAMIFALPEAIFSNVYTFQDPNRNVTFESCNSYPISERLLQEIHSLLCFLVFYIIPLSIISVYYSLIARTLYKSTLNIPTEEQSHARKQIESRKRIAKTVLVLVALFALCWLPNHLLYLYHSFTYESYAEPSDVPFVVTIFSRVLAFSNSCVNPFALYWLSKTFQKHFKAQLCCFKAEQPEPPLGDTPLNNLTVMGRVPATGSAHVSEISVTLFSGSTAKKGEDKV
Sequence of Melanocortin receptor 4 (Homo sapiens) (P32245 whole entry): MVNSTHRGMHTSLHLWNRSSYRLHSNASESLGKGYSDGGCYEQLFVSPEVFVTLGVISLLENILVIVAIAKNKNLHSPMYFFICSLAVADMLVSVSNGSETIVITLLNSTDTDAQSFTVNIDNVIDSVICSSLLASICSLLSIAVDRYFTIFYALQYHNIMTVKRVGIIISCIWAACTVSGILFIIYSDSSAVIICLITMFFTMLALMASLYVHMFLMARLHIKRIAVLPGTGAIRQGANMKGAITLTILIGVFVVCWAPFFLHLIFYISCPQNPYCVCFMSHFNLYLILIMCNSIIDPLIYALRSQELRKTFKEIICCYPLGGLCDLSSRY
Sequence of Peroxisome proliferator-activated receptor gamma (Homo sapiens) (P37231 whole entry): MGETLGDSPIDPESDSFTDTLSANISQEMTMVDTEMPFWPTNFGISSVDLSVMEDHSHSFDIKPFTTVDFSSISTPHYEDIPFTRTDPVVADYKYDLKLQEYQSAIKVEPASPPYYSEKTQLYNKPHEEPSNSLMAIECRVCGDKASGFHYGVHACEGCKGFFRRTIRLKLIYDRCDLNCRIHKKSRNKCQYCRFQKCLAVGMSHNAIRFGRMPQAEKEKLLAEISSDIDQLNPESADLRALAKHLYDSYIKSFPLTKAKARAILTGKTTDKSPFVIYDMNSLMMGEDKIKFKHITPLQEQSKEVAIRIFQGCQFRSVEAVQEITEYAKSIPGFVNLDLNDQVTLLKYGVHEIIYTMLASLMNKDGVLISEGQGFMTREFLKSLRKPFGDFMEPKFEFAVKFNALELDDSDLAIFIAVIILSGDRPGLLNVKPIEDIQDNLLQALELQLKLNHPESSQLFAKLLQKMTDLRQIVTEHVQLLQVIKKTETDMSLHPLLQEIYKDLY
Sequence of Muscarinic acetylcholine receptor M4 (Homo sapiens) (P08173 whole entry): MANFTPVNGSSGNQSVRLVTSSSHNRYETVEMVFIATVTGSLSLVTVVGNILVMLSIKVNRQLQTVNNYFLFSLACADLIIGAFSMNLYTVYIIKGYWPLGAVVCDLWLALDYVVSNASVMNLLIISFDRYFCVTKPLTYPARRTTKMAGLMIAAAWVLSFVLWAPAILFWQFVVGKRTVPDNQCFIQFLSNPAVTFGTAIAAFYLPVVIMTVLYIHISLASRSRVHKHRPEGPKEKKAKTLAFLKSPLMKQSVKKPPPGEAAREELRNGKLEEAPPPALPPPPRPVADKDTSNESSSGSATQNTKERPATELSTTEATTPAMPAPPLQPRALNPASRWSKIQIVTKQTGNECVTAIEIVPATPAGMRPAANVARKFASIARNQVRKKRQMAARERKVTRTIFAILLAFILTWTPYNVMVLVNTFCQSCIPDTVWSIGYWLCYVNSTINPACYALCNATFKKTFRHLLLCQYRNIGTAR
Sequence of Small conductance calcium-activated potassium channel protein 1 (Rattus norvegicus) (P70606 whole entry): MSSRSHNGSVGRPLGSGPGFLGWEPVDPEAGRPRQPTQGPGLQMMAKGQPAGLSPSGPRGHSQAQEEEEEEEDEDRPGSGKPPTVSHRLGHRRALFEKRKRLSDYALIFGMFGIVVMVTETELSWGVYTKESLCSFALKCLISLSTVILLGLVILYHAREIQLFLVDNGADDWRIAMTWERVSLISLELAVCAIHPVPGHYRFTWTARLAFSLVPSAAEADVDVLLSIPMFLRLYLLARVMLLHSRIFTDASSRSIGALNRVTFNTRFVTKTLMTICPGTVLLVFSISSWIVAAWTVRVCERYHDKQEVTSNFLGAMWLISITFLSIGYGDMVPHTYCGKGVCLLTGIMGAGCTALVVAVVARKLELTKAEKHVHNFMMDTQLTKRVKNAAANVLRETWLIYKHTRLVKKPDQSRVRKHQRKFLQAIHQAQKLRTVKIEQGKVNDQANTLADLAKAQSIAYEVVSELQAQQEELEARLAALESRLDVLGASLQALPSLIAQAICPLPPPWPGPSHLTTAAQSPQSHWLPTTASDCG
Sequence of Alpha-1A adrenergic receptor (Homo sapiens) (P35348 whole entry): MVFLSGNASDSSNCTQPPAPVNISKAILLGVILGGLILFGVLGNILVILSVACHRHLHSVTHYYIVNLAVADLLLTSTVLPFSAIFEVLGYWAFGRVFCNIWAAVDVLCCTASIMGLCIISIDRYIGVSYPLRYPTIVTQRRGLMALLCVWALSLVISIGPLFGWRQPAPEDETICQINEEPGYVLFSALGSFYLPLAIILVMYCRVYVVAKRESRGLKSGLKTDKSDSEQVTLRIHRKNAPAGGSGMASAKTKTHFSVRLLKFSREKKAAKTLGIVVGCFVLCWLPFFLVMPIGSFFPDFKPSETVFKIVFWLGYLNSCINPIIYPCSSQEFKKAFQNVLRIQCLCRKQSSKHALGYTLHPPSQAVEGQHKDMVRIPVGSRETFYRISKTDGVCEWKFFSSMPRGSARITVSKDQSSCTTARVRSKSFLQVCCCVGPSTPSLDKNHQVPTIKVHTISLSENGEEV
Sequence of Cathepsin G (P08311 whole entry): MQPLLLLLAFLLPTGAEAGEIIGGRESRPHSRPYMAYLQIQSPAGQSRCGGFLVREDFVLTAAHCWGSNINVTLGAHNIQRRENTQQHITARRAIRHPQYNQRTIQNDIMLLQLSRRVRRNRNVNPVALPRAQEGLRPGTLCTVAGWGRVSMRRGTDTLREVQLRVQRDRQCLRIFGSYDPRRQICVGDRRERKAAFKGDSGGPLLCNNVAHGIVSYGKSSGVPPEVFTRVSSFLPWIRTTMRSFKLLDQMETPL

SMILES: CC(C)(O)CNC(=O)N1C(=O)N(c2cccc(C(F)(F)F)c2)C2=C(C(=O)CC2)[C@@H]1c1ccc(C#N)cc1
- residual activity [1]: 88%
- residual activity [2]: 105%
- residual activity [3]: 102%
- residual activity [4]: 98%
- activity at 10 µM (hERG (KCNH2)): 96% (not active)
- residual activity [5]: 114%
- residual activity [6]: 105%

SMILES: CC(C)(O)CNC(=O)N1C(=O)N(c2cccc(C(F)(F)F)c2)C2=C(C(=O)CC2)[C@H]1c1ccc(C#N)cc1
- IC50 [7]: 0.004 µM (active)
- IC50 (Cathepsin G): > 10 µM (not active)
- residual activity [8]: 98%
- residual activity [9]: 93%
- residual activity [10]: 102%
- residual activity ([11]; Compound concentration 10.0 uM): 107%
- residual activity ([11]; Compound concentration 30.0 uM): 102%
- residual activity ([12]; Compound concentration 10.0 uM): 92%
- residual activity ([12]; Compound concentration 30.0 uM): 80%
- residual activity ([13]; Compound concentration 10.0 uM): 93%
- residual activity ([13]; Compound concentration 30.0 uM): 98%
- residual activity ([14]; Compound concentration 10.0 uM): 129%
- residual activity ([14]; Compound concentration 30.0 uM): 118%
- residual activity [15]: 95%
- residual activity [16]: 92%
- residual activity [17]: 105%
- residual activity [18]: 114%
- residual activity [19]: 95%
- residual activity [20]: 103%
- residual activity [21]: 88%
- residual activity [22]: 111%
- residual activity (Homo sapiens): 72%
- residual activity [23]: 115%
- residual activity (Rattus norvegicus [24]): 111%
- residual activity [25]: 136%
- residual activity ([26]; Compound concentration 10.0 uM): 100%
- residual activity ([26]; Compound concentration 30.0 uM): 93%
- residual activity ([27]; Compound concentration 10.0 uM): 87%
- residual activity ([27]; Compound concentration 30.0 uM): 93%
- residual activity ([28]; Compound concentration 10.0 uM): 108%
- residual activity ([28]; Compound concentration 30.0 uM): 113%
- residual activity (Rattus norvegicus [29]): 90%
- residual activity [30]: 77%
- residual activity [31]: 97%
- residual activity [32]: 65%
